Counter-ions that a name gives are not always drawn.
Columns and labels:
P. aeruginosa PΔ3 cells = details: 10-80 µM; for Concentration slopes of accumulation, PΔ3_1 min: 1 min incubation; for Concentration slopes of accumulation, PΔ3_40 min: 40 min incubation
Procedure: (§1) PAO1-Pore and PΔ3-Pore were grown at 37 °C overnight with shaking at 225 rpm in 50 mM MOPS-M9 (pH 7.2) Minimal Medium supplemented with 1% glycerol[42],[43].
(§2) The next day, cells were sub-cultured (1.5:100) in fresh MOPS-M9 medium and grown for 16 h. The cultures were then split into two flasks and one of them was induced with 0.1 mM IPTG. Cells incubated for additional 4 h until OD600 reached ~ 1.0 and harvested by centrifugation at 3,275xg for 20 min in RT, washed and concentrated 10X in the spent medium. Assays were performed in 96-well plates in a final volume of […]. Cells were incubated with 10, 20, 40, 80 µM of compounds and after 1- and 40-min incubation at RT, 100 µL cell aliquots were collected by vacuum filtration onto 1.0 µm Glass Fiber Type B filters. For no-cell controls, compounds were diluted to 10, 20, 40, 80 µM final concentration in the same medium, incubated for 1 min and 40 min and filtered onto the same plates. The cell loaded and cell-free filters were dried, removed from plates and placed into 100% methanol at -80 °C for at least 10 min. Filter-bound material was extracted by water bath sonication for 1 min. Cell and filter debris were separated by ultracentrifugation at 45,000 rpm (TLA55 rotor, Beckman) for 8 min at 16 °C and the pellet re-extracted with 80% methanol in water by sonication for 15 min followed by ultracentrifugation at the same conditions. Supernatants from two extractions were combined. For the compound quantification, 5 µL of solution was analyzed in triplicate.
(§3) Calibration curves for MS analyses of compounds were generated in the same experiment by mixing compound at increasing concentrations with the sonicated PAO1 cell extracts. […] Azithromycin was used as a positive control in all experiments.
(§4) Samples were processed in positive ion mode. An Eclipse plus C18 Rapid Resolution HD column (1.8 μm, 2.1 × 50 mm, Agilent, USA) was used for separation. The flow rate was 0.6 mL/min using the following gradient: 0 to 1 min (0- 20% ACN), 1 to 4 min (20- 80% ACN), 4 to 5.1 min (80–100% ACN), 5.1 to 6.30 (100% ACN). Solvents contained 0.1% formic acid to promote positive ion formation in the electrospray. […] Data were analyzed using Agilent Masshunter workstation quantitative analysis v. B.10 software.

[1] = system: P. aeruginosa PAO1-Pore cells; experiment: LC–MS quantification of intracellular accumulation, PAO1-Pore; details: 10-80 µM; for Concentration slopes of accumulation, PAO1-Pore_1 min: 1 min incubation; for Concentration slopes of accumulation, PAO1-Pore_40 min: 40 min incubation
Procedure: as §1, §2, §3, §4

[2] = system: P. aeruginosa PΔ3-Pore cells; experiment: LC–MS quantification of intracellular accumulation, PΔ3-Pore; details: 10-80 µM; for Concentration slopes of accumulation, PΔ3-Pore_1 min: 1 min incubation; for Concentration slopes of accumulation, PΔ3-Pore_40min: 40 min incubation
Procedure: as §1, §2, §3, §4

P. aeruginosa PAO1 cells = experiment: LC–MS quantification of intracellular accumulation, PAO1; details: 10-80 µM; for Concentration slopes of accumulation, PAO1_1 min: 1 min incubation; for Concentration slopes of accumulation, PAO1_40 min: 40 min incubation
Procedure: as §1, §2, §3, §4
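Also: slope of accumulation versus external concentration fitted as a line through zero.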

CCCC[C@H]1CNC(=O)[C@H](Cc2cc(F)cc(F)c2)N1 [OU-0032509]
Concentration slopes of accumulation, PΔ3_1 min (P. aeruginosa PΔ3 cells): 14.12
Concentration slopes of accumulation, PΔ3_40 min (P. aeruginosa PΔ3 cells): 18.21
Concentration slopes of accumulation, PAO1-Pore_1 min [1]: 23.40
Concentration slopes of accumulation, PAO1-Pore_40 min [1]: 20.61
Concentration slopes of accumulation, PΔ3-Pore_1 min [2]: 27.36
Concentration slopes of accumulation, PΔ3-Pore_40min [2]: 24.02

CNC(=C[N+](=O)[O-])NCCSCc1ccc(CN(C)C)o1 [OU-0000840, Ranitidine HCl]
Concentration slopes of accumulation, PΔ3_1 min (P. aeruginosa PΔ3 cells): 2.62
Concentration slopes of accumulation, PΔ3_40 min (P. aeruginosa PΔ3 cells): 3.53
Concentration slopes of accumulation, PAO1-Pore_1 min [1]: 4.44
Concentration slopes of accumulation, PAO1-Pore_40 min [1]: 5.25
Concentration slopes of accumulation, PAO1_1 min (P. aeruginosa PAO1 cells): 3.41
Concentration slopes of accumulation, PAO1_40 min (P. aeruginosa PAO1 cells): 2.83
Concentration slopes of accumulation, PΔ3-Pore_1 min [2]: 5.13
Concentration slopes of accumulation, PΔ3-Pore_40min [2]: 1.37

CCOC(=O)NC(=S)Nc1ccccc1NC(=S)NC(=O)OCC [OU-0000837, Thiophanate]
Concentration slopes of accumulation, PΔ3_1 min (P. aeruginosa PΔ3 cells): 3.05
Concentration slopes of accumulation, PΔ3_40 min (P. aeruginosa PΔ3 cells): 1.80
Concentration slopes of accumulation, PAO1-Pore_1 min [1]: 3.05
Concentration slopes of accumulation, PAO1-Pore_40 min [1]: 1.80
Concentration slopes of accumulation, PAO1_1 min (P. aeruginosa PAO1 cells): 3.24
Concentration slopes of accumulation, PAO1_40 min (P. aeruginosa PAO1 cells): 3.72
Concentration slopes of accumulation, PΔ3-Pore_1 min [2]: 14.84
Concentration slopes of accumulation, PΔ3-Pore_40min [2]: 13.42

COCCCC/C(=N\OCCN)c1ccc(C(F)(F)F)cc1 [OU-0000742, Fluvoxamine]
Concentration slopes of accumulation, PΔ3_1 min (P. aeruginosa PΔ3 cells): 4.15
Concentration slopes of accumulation, PΔ3_40 min (P. aeruginosa PΔ3 cells): 4.97
Concentration slopes of accumulation, PAO1-Pore_1 min [1]: 6.04
Concentration slopes of accumulation, PAO1-Pore_40 min [1]: 6.15
Concentration slopes of accumulation, PAO1_1 min (P. aeruginosa PAO1 cells): 3.55
Concentration slopes of accumulation, PAO1_40 min (P. aeruginosa PAO1 cells): 4.45
Concentration slopes of accumulation, PΔ3-Pore_1 min [2]: 6.28
Concentration slopes of accumulation, PΔ3-Pore_40min [2]: 6.18

CC(CCc1ccccc1)NCC(O)c1ccc(O)c(C(N)=O)c1 (stereo not drawn) [OU-0000748, Labetalol HCl]
Concentration slopes of accumulation, PΔ3_1 min (P. aeruginosa PΔ3 cells): 17.87
Concentration slopes of accumulation, PΔ3_40 min (P. aeruginosa PΔ3 cells): 22.85
Concentration slopes of accumulation, PAO1-Pore_1 min [1]: 21.98
Concentration slopes of accumulation, PAO1-Pore_40 min [1]: 21.99
Concentration slopes of accumulation, PAO1_1 min (P. aeruginosa PAO1 cells): 15.94
Concentration slopes of accumulation, PAO1_40 min (P. aeruginosa PAO1 cells): 14.89
Concentration slopes of accumulation, PΔ3-Pore_1 min [2]: 23.35
Concentration slopes of accumulation, PΔ3-Pore_40min [2]: 22.27

O=C1NC[C@@H](CCC2CCCCC2)N[C@H]1Cc1cc(F)cc(F)c1 [OU-0032508]
Concentration slopes of accumulation, PΔ3_1 min (P. aeruginosa PΔ3 cells): 14.00
Concentration slopes of accumulation, PΔ3_40 min (P. aeruginosa PΔ3 cells): 12.40
Concentration slopes of accumulation, PAO1-Pore_1 min [1]: 20.38
Concentration slopes of accumulation, PAO1-Pore_40 min [1]: 23.85
Concentration slopes of accumulation, PΔ3-Pore_1 min [2]: 20.49
Concentration slopes of accumulation, PΔ3-Pore_40min [2]: 21.97

COc1ccc(CCN(C)CCCC(C#N)(c2ccc(OC)c(OC)c2)C(C)C)cc1OC (stereo not drawn) [OU-0000734, Verapamil HCl]
Concentration slopes of accumulation, PΔ3_1 min (P. aeruginosa PΔ3 cells): 12.95
Concentration slopes of accumulation, PΔ3_40 min (P. aeruginosa PΔ3 cells): 12.00
Concentration slopes of accumulation, PAO1-Pore_1 min [1]: 16.77
Concentration slopes of accumulation, PAO1-Pore_40 min [1]: 15.63
Concentration slopes of accumulation, PAO1_1 min (P. aeruginosa PAO1 cells): 12.96
Concentration slopes of accumulation, PAO1_40 min (P. aeruginosa PAO1 cells): 13.17
Concentration slopes of accumulation, PΔ3-Pore_1 min [2]: 17.77
Concentration slopes of accumulation, PΔ3-Pore_40min [2]: 18.38

O=C(c1ccc(OCCN2CCCCC2)cc1)c1c(-c2ccc(O)cc2)sc2cc(O)ccc12 [OU-0000741, Raloxifene HCl]
Concentration slopes of accumulation, PΔ3_1 min (P. aeruginosa PΔ3 cells): 69.39
Concentration slopes of accumulation, PΔ3_40 min (P. aeruginosa PΔ3 cells): 35.59
Concentration slopes of accumulation, PAO1-Pore_1 min [1]: 56.66
Concentration slopes of accumulation, PAO1-Pore_40 min [1]: 52.80
Concentration slopes of accumulation, PAO1_1 min (P. aeruginosa PAO1 cells): 45.85
Concentration slopes of accumulation, PAO1_40 min (P. aeruginosa PAO1 cells): 26.99
Concentration slopes of accumulation, PΔ3-Pore_1 min [2]: 83.30
Concentration slopes of accumulation, PΔ3-Pore_40min [2]: 77.54

COc1ccc2cc1Oc1ccc(cc1)C[C@H]1c3cc(c(OC)cc3CCN1C)Oc1c(OC)c(OC)cc3c1[C@H](C2)N(C)CC3 [OU-0032506, Tetrandrine]
Concentration slopes of accumulation, PΔ3_1 min (P. aeruginosa PΔ3 cells): 7.92
Concentration slopes of accumulation, PΔ3_40 min (P. aeruginosa PΔ3 cells): 5.95
Concentration slopes of accumulation, PAO1-Pore_1 min [1]: 10.07
Concentration slopes of accumulation, PAO1-Pore_40 min [1]: 7.33
Concentration slopes of accumulation, PAO1_1 min (P. aeruginosa PAO1 cells): 5.68
Concentration slopes of accumulation, PAO1_40 min (P. aeruginosa PAO1 cells): 5.34
Concentration slopes of accumulation, PΔ3-Pore_1 min [2]: 11.59
Concentration slopes of accumulation, PΔ3-Pore_40min [2]: 8.93

CC[C@H]1CN2CCc3cc(OC)c(OC)cc3[C@@H]2C[C@@H]1C[C@H]1NCCc2cc(OC)c(OC)cc21.Cl.Cl [OU-0032504, Emetine DIHCl]
Concentration slopes of accumulation, PΔ3_1 min (P. aeruginosa PΔ3 cells): 1.07
Concentration slopes of accumulation, PΔ3_40 min (P. aeruginosa PΔ3 cells): 0.76
Concentration slopes of accumulation, PAO1-Pore_1 min [1]: 1.29
Concentration slopes of accumulation, PAO1-Pore_40 min [1]: 1.17
Concentration slopes of accumulation, PAO1_1 min (P. aeruginosa PAO1 cells): 0.61
Concentration slopes of accumulation, PAO1_40 min (P. aeruginosa PAO1 cells): 0.65
Concentration slopes of accumulation, PΔ3-Pore_1 min [2]: 1.71
Concentration slopes of accumulation, PΔ3-Pore_40min [2]: 1.61

NC(N)=Nc1nc(CSCCC(N)=NS(N)(=O)=O)cs1 [OU-0000841, Famotidine]
Concentration slopes of accumulation, PΔ3_1 min (P. aeruginosa PΔ3 cells): 4.40
Concentration slopes of accumulation, PΔ3_40 min (P. aeruginosa PΔ3 cells): 4.38
Concentration slopes of accumulation, PAO1-Pore_1 min [1]: 3.94
Concentration slopes of accumulation, PAO1-Pore_40 min [1]: 2.86
Concentration slopes of accumulation, PAO1_1 min (P. aeruginosa PAO1 cells): 4.64
Concentration slopes of accumulation, PAO1_40 min (P. aeruginosa PAO1 cells): 5.28
Concentration slopes of accumulation, PΔ3-Pore_1 min [2]: 6.27
Concentration slopes of accumulation, PΔ3-Pore_40min [2]: 4.45

CC(Cc1ccc(O)cc1)NCC(O)c1cc(O)cc(O)c1 (stereo not drawn) [OU-0000755, Fenoterol HBr]
Concentration slopes of accumulation, PΔ3_1 min (P. aeruginosa PΔ3 cells): 2.24
Concentration slopes of accumulation, PΔ3_40 min (P. aeruginosa PΔ3 cells): 1.99
Concentration slopes of accumulation, PAO1-Pore_1 min [1]: 1.22
Concentration slopes of accumulation, PAO1-Pore_40 min [1]: 2.13
Concentration slopes of accumulation, PAO1_1 min (P. aeruginosa PAO1 cells): 1.15
Concentration slopes of accumulation, PAO1_40 min (P. aeruginosa PAO1 cells): 1.72
Concentration slopes of accumulation, PΔ3-Pore_1 min [2]: 2.02
Concentration slopes of accumulation, PΔ3-Pore_40min [2]: 2.24

O=C1CC2(CCCC2)CC(=O)N1CCCCN1CCN(c2ncccn2)CC1 [OU-0000735, Buspirone HCl]
Concentration slopes of accumulation, PΔ3_1 min (P. aeruginosa PΔ3 cells): 6.98
Concentration slopes of accumulation, PΔ3_40 min (P. aeruginosa PΔ3 cells): 6.60
Concentration slopes of accumulation, PAO1-Pore_1 min [1]: 7.76
Concentration slopes of accumulation, PAO1-Pore_40 min [1]: 7.56
Concentration slopes of accumulation, PAO1_1 min (P. aeruginosa PAO1 cells): 6.08
Concentration slopes of accumulation, PAO1_40 min (P. aeruginosa PAO1 cells): 7.21
Concentration slopes of accumulation, PΔ3-Pore_1 min [2]: 9.57
Concentration slopes of accumulation, PΔ3-Pore_40min [2]: 9.56

CCN1CCCC1CNC(=O)c1cc(S(N)(=O)=O)ccc1OC.Cl (stereo not drawn) [OU-0032505, Sulpiride HCl]
Concentration slopes of accumulation, PΔ3_1 min (P. aeruginosa PΔ3 cells): 6.18
Concentration slopes of accumulation, PΔ3_40 min (P. aeruginosa PΔ3 cells): 6.27
Concentration slopes of accumulation, PAO1-Pore_1 min [1]: 7.04
Concentration slopes of accumulation, PAO1-Pore_40 min [1]: 7.90
Concentration slopes of accumulation, PΔ3-Pore_1 min [2]: 7.14
Concentration slopes of accumulation, PΔ3-Pore_40min [2]: 7.60

CC(C)NCC(O)c1ccc(NS(C)(=O)=O)cc1 (stereo not drawn) [OU-0032507, Sotalol HCl]
Concentration slopes of accumulation, PΔ3_1 min (P. aeruginosa PΔ3 cells): 3.77
Concentration slopes of accumulation, PΔ3_40 min (P. aeruginosa PΔ3 cells): 2.90
Concentration slopes of accumulation, PAO1-Pore_1 min [1]: 8.24
Concentration slopes of accumulation, PAO1-Pore_40 min [1]: 3.55
Concentration slopes of accumulation, PAO1_1 min (P. aeruginosa PAO1 cells): 4.31
Concentration slopes of accumulation, PAO1_40 min (P. aeruginosa PAO1 cells): 4.58
Concentration slopes of accumulation, PΔ3-Pore_1 min [2]: 15.87
Concentration slopes of accumulation, PΔ3-Pore_40min [2]: 9.07
